Data as given in ChEMBL document CHEMBL5620358, “Proteolysis-targeting chimeras in biotherapeutics: Current trends and future applications” (Eur J Med Chem, 2023).

Legend:
[1] = Antiproliferative activity against human TNBC cells assessed as inhibition of cell growth; assay type: functional, Breast carcinoma cell
[2] = biological target: T1, Protein cereblon/Cyclin-dependent kinase 9 (Homo sapiens) (UniProt P50750+Q96SW2); experiment: PROTAC activity at E3 ubiquitin ligase/CDK9 in human MOLT-4 cells assessed as induction of CDK9 degradation at 250 nM by immunoblot analysis; assay type: cell-based
[3] = biological target: Protein cereblon/Bromodomain-containing protein 9 (Homo sapiens, UniProt Q9H8M2+Q96SW2); experiment: PROTAC activity at CRBN/BRD9 (unknown origin) assessed as induction of BRD9 degradation; assay type: protein assay
[4] = biological target: T1, Protein cereblon/Cyclin-dependent kinase 9 (Homo sapiens); experiment: PROTAC activity at E3 ubiquitin ligase/CDK9 in human HCT-116 cells assessed as induction of CDK9 degradation at 20 uM measured after 6 hrs by western blot analysis; assay type: cell-based
[5] = Induction of AR degradation in castrated mouse model xenografted with human VCaP cells at 1 mg/kg; assay type: functional
MCF7 = experiment: Cytotoxicity against human MCF7 cells assessed as inhibition of cell proliferation measured after 72 hrs by MTT assay; assay type: functional, cell-based; details: MCF7, 72 h
[6] = biological target: Protein cereblon/Macrophage migration inhibitory factor (Homo sapiens, UniProt P14174+Q96SW2); experiment: PROTAC activity at E3 ubiquitin ligase/MIF in human A549 cells assessed as induction of MIF degradation; assay type: cell-based
[7] = biological target: von Hippel-Lindau disease tumor suppressor/Haloalkane dehalogenase (Rhodococcus sp, UniProt P40337+P0A3G3); experiment: PROTAC activity at VHL/HaloTag7-GFP fusion protein (unknown origin) assessed as induction of fusion protein degradation
[8] = biological target: von Hippel-Lindau disease tumor suppressor/Haloalkane dehalogenase (Rhodococcus sp) (UniProt P40337+P0A3G3); experiment: PROTAC activity at VHL/HaloTag7-GFP fusion protein (unknown origin) assessed as induction of fusion protein degradation relative to control

Nc1c(C(=O)Nc2ccc(F)cc2)sc2nc(-c3cccs3)cc(C(F)(F)F)c12
inhibition (INH) [1]: 47.8%

CC(C)(C)c1cnc(CSc2cnc(NC(=O)C3CCN(CC(=O)NCCOCCOCCOCCNc4cccc5c4C(=O)N(C4CCC(=O)NC4=O)C5=O)CC3)s2)o1 (centres undefined)
Activity [2]: 99%

COc1cc(-c2cn(C)c(=O)c(C)c2C)cc(OC)c1CN1CC[C@H](N2CCN(c3ccc(N[C@H]4CCC(=O)NC4=O)cc3F)CC2)C(F)(F)C1 [SENDEGOBRESIB]
DC50 [3]: 2.7 nM

O=C1CCC(N2C(=O)c3cccc(OCCCCCOc4ccc(CC(=O)Nc5cc(C6CCC6)[nH]n5)cc4)c3C2=O)C(=O)N1 (centres undefined)
Activity [4]: 65%

N#Cc1ccc(O[C@H]2CC[C@H](NC(=O)c3ccc(N4CCC(CN5CCN(c6cc7c(cc6F)C(=O)N(C6CCC(=O)NC6=O)C7=O)CC5)CC4)nn3)CC2)cc1Cl (some centres undefined) [BAVDEGALUTAMIDE]
Activity [5]: 90%

Nc1cccc2c1C(=O)N(C1CCC(=O)NC1=O)C2=O (centres undefined) [POMALIDOMIDE]
IC50 (MCF7): 17000 nM

O=C1CCC(N2C(=O)c3cccc(NCCCCCCCC(=O)Nc4ccc(N5Cc6ccc(O)cc6OC5=O)cc4)c3C2=O)C(=O)N1 (centres undefined)
DC50 [6]: 100 nM

Cc1ncsc1-c1ccc(CNC(=O)[C@@H]2C[C@@H](O)CN2C(=O)[C@H](C(C)C)N2Cc3ccccc3C2=O)c(OCCOCCOCCOCCCCCCCl)c1
DC50 [7]: 19 nM | Activity [8]: 90%
